Source: patent US11518760B2 (Liverpool School of Tropical Medicine, priority 2017, dated 2022)

Test system: C6/36 Aedes albopictus cell line infected with Wolbachia pipientis (Wolbachia strain wAlbB)
Test: In vitro insect cell line assay (anti-Wolbachia screen, SYTO 11 high content imaging)
Type: cell-based
Settings: 168 h; C6/36 Aedes albopictus cells infected with Wolbachia pipientis wAlbB, 7 days incubation, SYTO 11 imaging; read-out: In vitro anti-Wolbachia activity
Method: A C6/36 Aedes albopictus cell line infected with Wolbachia pipientis (Wolbachia strain wAlbB) derived from Aa23 A. albopictus cell line (O'Neill et al., 1997; Insect Mol Biol; Turner et al., (2006) J. Immunol. 7:1240-1249) was used to screen compounds. Cells were cultured in Leibovitz's L15+L-glutamine supplemented with heat-inactivated Foetal Calf Serum (HI-FCS), non-essential amino acids and tryptose phosphate broth. Culture medium was filter-sterilized through a 0.2 μm filter and stored at 4° C. Compounds were provided as 10 mM stocks in DMSO, diluted to 50 μM working stock to give final concentration of 5 μM on the test plate. Concentrated stocks were frozen at −20° C.
Prior to use in the screening assay, cell cultures were sub-passaged (6 days prior) to provide ˜90% confluent cells on Day 0 of screening assay. On Day 0 (assay set-up), the medium was removed from the stock culture flask and replaced with fresh medium. The cells were detached by scraping and cell density was calculated using an automated cell counter. The cells were then diluted at working density and aliquoted at 90 μl to each well of a Cell Carrier 384 well plate (Perkin Elmer). Cell plates were incubated at 26° C.
Control solution (DMSO-medium) was dispensed at 10 μl per well for “untreated” wells. Test solution (Drug-DMSO) was also dispensed at 10 μl (from working plate) per well for “treated” wells. The plates were incubated at 26° C., inside plastic wallet in incubator, for 7 days.
On Day 7, 25 μl of staining medium/dye (SYTO 11, Life Technologies) was added to each sample well and allowed to stain for 15 minutes in the dark. All the medium was removed from each sample well without disturbing the cells and replaced with 100 μl of fresh medium. Plates were imaged on the Operetta High Content Imaging system (Perkin Elmer) and analyzed using texture analysis through Harmony software (Perkin Elmer). The cell-based screen and analysis are described in detail in Clare et al. (2014) J Biomol Screen.

`FC(F)(F)c1ncccc1CNc1nc(N2CCCCC23CC3)nc2ncccc12` [Example 296, 2-(4-azaspiro[2.5]octan-4-yl)-N-((2-(trifluoromethyl)pyridin-3-yl)methyl)pyrido[2,3-d]pyrimidin-4-amine] and `FC(F)(F)c1ncccc1CNc1nc(N2CCCC23CCC3)nc2ncccc12` [Example 298] cannot be ordered by EC50: < 0.01 nM for the first, < 0.01 nM for the second.

Compared with `CN(Cc1ccccc1C(F)(F)F)c1nc(Cl)nc2ccsc12` [Example 49, 2-chloro-N-methyl-N-(2-(trifluoromethyl)benzyl)thieno[3,2-d]pyrimidin-4-amine], `FC(F)(F)c1ccccc1CNc1nc(Cl)nc2ccsc12` [Example 46, 2-chloro-N-(2-(trifluoromethyl)benzyl)thieno[3,2-d]pyrimidin-4-amine] is higher in EC50: 1 to 10 nM for the first, 10 to 100 nM for the second.

First: CNCc1nc(NCc2ccccc2C(F)(F)F)c2cccnc2n1 [Example 145, 2-((methylamino)methyl)-N-(2-(trifluoromethyl)benzyl)pyrido[2,3-d]pyrimidin-4-amine]
Second: N#CC1CN(c2nc(NCc3ccccc3C(F)(F)F)c3cccnc3n2)C1 [Example 245, 1-(4-((2-(trifluoromethyl)benzyl)amino)pyrido[2,3-d]pyrimidin-2-yl)azetidine-3-carbonitrile]
The EC50 of the first is higher: 1000 to 100000 nM for the first, 1 to 10 nM for the second. The second is the more potent here.

`CC1CCN(c2nc(NCc3cccnc3C(F)(F)F)c3cccnc3n2)CC1` [Example 312, 2-(4-methylpiperidin-1-yl)-N-((2-(trifluoromethyl)pyridin-3-yl)methyl)pyrido[2,3-d]pyrimidin-4-amine] and `CC1CCCN(c2nc(NCc3cccnc3C(F)(F)F)c3cccnc3n2)C1` (stereo not shown) [Example 311, 2-(3-methylpiperidin-1-yl)-N-((2-(trifluoromethyl)pyridin-3-yl)methyl)pyrido[2,3-d]pyrimidin-4-amine] fall in the same range of EC50: 0.01 to 1 nM for the first, 0.01 to 1 nM for the second.

First: CC(C)Nc1nc(NCc2ccccc2Cl)c2sccc2n1 [Example 17, N^4-(2-chlorobenzyl)-N^2-isopropylthieno[3,2-d]pyrimidine-2,4-diamine]
Second: CC(C)Nc1nc(NCc2ccccc2S(C)(=O)=O)c2sccc2n1 [Example 117, N^2-isopropyl-N^4-(2-(methylsuifonyl)benzyl)thieno[3,2-d]pyrimidine-2,4-diamine]
The EC50 of the first is lower: 10 to 100 nM for the first, 100 to 1000 nM for the second.

Compared with `Cc1nc(NC(C)c2ccccc2C(F)(F)F)c2sccc2n1` (stereo not shown) [Example 65, 2-methyl-N-(1-(2-(trifluoromethyl)phenyl)ethyl)thieno[3,2-d]pyrimidin-4-amine], `CC(c1ccccc1C(F)(F)F)N(C)c1nc(C#N)nc2ccsc12` (stereo not shown) [Example 74, 4-(methyl(1-(2-(trifluoromethyl)phenyl)ethyl)amino)thieno[3,2-d]pyrimidine-2-carbonitrile] is higher in EC50: 10 to 100 nM for the first, 1000 to 100000 nM for the second. The first is the more potent here.

First: CC1(C)CCN(c2nc(NCc3ccccc3C(F)(F)F)c3cccnc3n2)CC1 [Example 244, 2-(4,4-dimethylpiperidin-1-yl)-N-(2-(trifluoromethyl)benzyl)pyndo[2,3-d]pyrimidin-4-amine]
Second: CC1CN(c2nc(NCc3ccccc3C(F)(F)F)c3cccnc3n2)C[C@H](C)O1 (stereo partly drawn) [Example 268, 2-((6S)-2,6-dimethylmorpholino)-N-(2-(trifluoromethyl)benzyl)pyrido[2,3-d]pyrimidin-4-amine]
The EC50 of the first is lower: 1 to 10 nM for the first, 10 to 100 nM for the second.

Compared with `FC(F)(F)c1cnn(-c2nc(NCc3cccnc3C(F)(F)F)c3cccnc3n2)c1` [Example 203, 2-(4-(trifluoromethyl)-1H-pyrazol-1-yl)-N-((2-(trifluoromethyl)pyridin-3-yl)methyl)pyrido[2,3-d]pyrimidin-4-amine], `FC(F)(F)c1ncccc1CNc1nc(N2CCCC2)nc2ncccc12` [Example 174, 2-(pyrrolidin-1-yl)-N-((2-(trifluoromethyl)pyridin-3-yl)methyl)pyrido[2,3-d]pyrimidin-4-amine] is lower in EC50: 100 to 1000 nM for the first, 0.01 to 1 nM for the second. The second is the more potent here.

First: O=C(Nc1cccc(F)c1)Nc1nc(NCc2cccnc2C(F)(F)F)c2cccnc2n1 [Example 205, 1-(3-fluorophenyl)-3-(4-(((2-(trifluoromethyl)pyridin-3-yl)methyl)amino)pyrido[2,3-d]pyrimidin-2-yl)urea]
Second: CN1CC(Nc2nc(NCc3cccnc3C(F)(F)F)c3cccnc3n2)C1 [Example 148, N^2-(1-methylazetidin-3-yl)-N^4-((2-(trifluoromethyl)pyridin-3-yl)methyl)pyrido[2,3-d]pyrimidine-2,4-diamine]
The EC50 of the first is lower: 10 to 100 nM for the first, 1000 to 100000 nM for the second.

Compared with `C[C@H]1OCCN(c2nc(NCc3cccnc3C(F)(F)F)c3cccnc3n2)[C@H]1C` [Example 287, 2-((2R,3S)-2,3-dimethylmorpholino)-N-((2-(trifluoromethyl)pyridin-3-yl)methyl)pyrido[2,3-d]pyrimidin-4-amine], `N#CC1CCCN1c1nc(NCc2cccnc2C(F)(F)F)c2cccnc2n1` (stereo not shown) [Example 238, 1-(4-(((2-(trifluoromethyl)pyridin-3-yl)methyl)amino)pyrido[2,3-d]pyrimidin-2-yl)pyrrolidine-2-carbonitrile] is higher in EC50: 0.01 to 1 nM for the first, 10 to 100 nM for the second.

Compared with `FC(F)(F)c1ncccc1CNc1ncnc2ccsc12` [Example 103, N-((2-(trifluoromethyl)pyridin-3-yl)methyl)thieno[3,2-d]pyrimidin-4-amine], `FC(F)(F)c1ccncc1CNc1ncnc2ccsc12` [Example 82] is higher in EC50: 10 to 100 nM for the first, 1000 to 100000 nM for the second.

Compared with `FC(F)(F)c1ccccc1CNc1nc(NCCN2CCCC2)nc2ccsc12` [Example 91, N^2-(2-(pyrrolidin-1-yl)ethyl)-N^4-(2-(trifluoromethyl)benzyl)thieno[3,2-d]pyrimidine-2,4-diamine], `FC(F)(F)CNc1nc(NCc2ccccc2C(F)(F)F)c2sccc2n1` [Example 42, N^2-(2,2,2-trifluoroethyl)-N^4-(2-(trifluoromethyl)benzyl)thieno[3,2-d]pyrimidine-2,4-diamine] is lower in EC50: 1000 to 100000 nM for the first, 100 to 1000 nM for the second.

First: CC(C)Nc1nc(NCc2c(F)cccc2C(F)(F)F)c2cccnc2n1 [Example 166, N^4-(2-fluoro-6-(trifluoromethyl)benzyl)-N^2-isopropylpyrido[2,3-d]pyrimidine-2,4-diamine]
Second: CC(C)Nc1nc(NCc2ccc(C(F)(F)F)nc2)c2cccnc2n1 [Example 130, N^2-isopropyl-N^4-((6-(trifluoromethyl)pyridin-3-yl)methyl)pyrido[2,3-d]pyrimidine-2,4-diamine]
The EC50 of the first is lower: 100 to 1000 nM for the first, 1000 to 100000 nM for the second. The first is the more potent here.

First: CC(C)Nc1nc(N2CCC2c2ccccc2C(F)(F)F)c2cccnc2n1 (stereo not shown) [Example 183, N-isopropyl-4-(2-(2-(trifluoromethyl)phenyl)azetidin-1-yl)pyrido[2,3-d]pyrimidin-2-amine]
Second: CC(C)Nc1nc(N2CCCCC2c2ccccc2C(F)(F)F)c2cccnc2n1 (stereo not shown) [Example 185, N-isopropyl-4-(2-(2-(trifluoromethyl)phenyl)piperidin-1-yl)pyrido[2,3-d]pyrimidin-2-amine]
The EC50 of the first is lower: 1 to 10 nM for the first, 1000 to 100000 nM for the second. The first is the more potent here.

Compared with `COc1cccc(CNc2ncnc3ccsc23)c1C(F)(F)F` [Example 51, N-(3-methoxy-2-(trifluoromethyl)benzyl)thieno[3,2-d]pyrimidin-4-amine], `CC(Nc1ncnc2cc(C3CC3)sc12)c1ccccc1C(F)(F)F` (stereo not shown) [Example 99, 6-cyclopropyl-N-(1-(2-(trifluoromethyl)phenyl)ethyl)thieno[3,2-d]pyrimidin-4-amine] is higher in EC50: 10 to 100 nM for the first, 1000 to 100000 nM for the second. The first is the more potent here.

`CC(C)N(C)c1nc(N2CCC2c2ccccc2C(F)(F)F)c2cccnc2n1` (stereo not shown) [Example 184, N-isopropyl-N-methyl-4-(2-(2-(trifluoromethyl)phenyl)azetidin-1-yl)pyrido[2,3-d]pyrimidin-2-amine] and `FC1(F)CCN(c2nc(N3CCC3c3cccnc3C(F)(F)F)c3cccnc3n2)CC1` (stereo not shown) [Example 218, 2-(4,4-difluoropiperidin-1-yl)-4-(2-(2-(trifluoromethyl)pyridin-3-yl)azetidin-1-yl)pyrido[2,3-d]pyrimidine] fall in the same range of EC50: 0.01 to 1 nM for the first, 0.01 to 1 nM for the second.

Compared with `CS(=O)(=O)c1ccccc1CNc1nc(Cl)nc2ccccc12` [Example 113], `CC(C)Nc1nc(NCc2ccc(S(C)(=O)=O)cc2)c2cccnc2n1` [Example 128, N^2-isopropyl-N^4-(4-(methylsulfonyl)benzyl)pyrido[2,3-d]pyrimidine-2,4-diamine] is lower in EC50: 1000 to 100000 nM for the first, 100 to 1000 nM for the second. The second is the more potent here.

`CC(C)Nc1cc(NCc2cccnc2C(F)(F)F)c2cccnc2n1` [Example 165, N^2-isopropyl-N^4-((2-(trifluoromethyl)pyridin-3-yl)methyl)-1,8-naphthyridine-2,4-diamine] and `FC1(F)CN(c2nc(NCc3cccnc3C(F)(F)F)c3cccnc3n2)CC(F)(F)O1` [Example 295, 2-(2,2,6,6-tetrafluoromorpholino)-N-((2-(trifluoromethyl)pyridin-3-yl)methyl)pyrido[2,3-d]pyrimidin-4-amine] fall in the same range of EC50: 10 to 100 nM for the first, 10 to 100 nM for the second.

Same assay, conditions: C6/36 Aedes albopictus cells infected with Wolbachia pipientis wAlbB, 7 days incubation, SYTO 11 imaging; read-out: In vitro anti-Wolbachia activity

“2-((3,3-difluoropyrrolidin-1-yl)methyl)-N-((2-(trifluoromethyl)pyridin-3-yl)methyl)pyrido[2,3-d]pyrimidin-4-amine [Example 225]” gave an EC50 of 1000 to 100000 nM.
